Data as given in ChEMBL document CHEMBL1155907, “Structure-activity relationship of flavonoids as influenza virus neuraminidase inhibitors and their in vitro anti-viral activities” (Bioorg Med Chem, 2008).

Key:
Neuraminidase [1] = biological target: T1, Neuraminidase (Influenza A virus, UniProt B4URF0); parameters: species or system Influenza A virus (A/Puerto Rico/8/1934(H1N1))
Neuraminidase [2] = biological target: T1, Neuraminidase
Neuraminidase [3] = biological target: T1, Neuraminidase; parameters: species or system Influenza B virus
Influenza A virus = test: Antiviral activity against Influenza A virus Jinan/15/90 H3N2 assessed as reduction of virus-induced cytopathic effect; type: functional, organism-based
[4] = Cytotoxicity against MDCK cells assessed as maximal non-cytotoxic concentration by MTT assay; type: cell-based, Canis lupus familiaris; settings: dog, read-out: MNCC
[5] = Cytotoxicity against MDCK cells by MTT assay; type: cell-based, Canis lupus familiaris; settings: dog
[6] = Selectivity index, ratio of CC50 to MDCK cells to IC50 to Influenza A Jinan/15/90 H3N2 virus; type: functional

T1 sequence (B4URF0 whole entry): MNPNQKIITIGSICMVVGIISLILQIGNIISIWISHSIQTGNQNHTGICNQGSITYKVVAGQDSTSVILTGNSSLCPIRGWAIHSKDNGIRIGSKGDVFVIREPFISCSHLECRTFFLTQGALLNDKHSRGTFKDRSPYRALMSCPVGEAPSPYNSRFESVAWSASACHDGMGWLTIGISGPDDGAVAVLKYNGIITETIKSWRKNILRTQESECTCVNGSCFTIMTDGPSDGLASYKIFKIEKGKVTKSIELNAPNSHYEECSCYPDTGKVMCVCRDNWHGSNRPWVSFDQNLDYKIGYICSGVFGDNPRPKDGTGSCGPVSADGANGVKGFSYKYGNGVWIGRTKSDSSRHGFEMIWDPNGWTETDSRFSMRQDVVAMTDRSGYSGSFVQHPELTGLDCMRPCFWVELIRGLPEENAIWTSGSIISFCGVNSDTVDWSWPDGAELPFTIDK

Compound | IC50 (Neuraminidase [1]) [µM] | IC50 (Neuraminidase [2]) [µM] | IC50 (Neuraminidase [3]) [µM] | IC50 (Influenza A virus) [µM] | MNTC [4] [µM] | CC50 [5] [µM] | Ratio CC50/IC50 [6]
O=C1/C(=C\c2ccccc2)Oc2cc(O)ccc21 | 72 | 73.3 | 86.6 | – | – | – | –
O=C1/C(=C\c2ccc(O)cc2)Oc2cc(O)cc(O)c21 | 25.6 | 22.3 | 25.4 | > 741 | > 741 | > 741 | –
O=C1/C(=C\c2ccc(O)cc2)Oc2cc(O)ccc21 | 22 | 22.1 | 22.9 | 15.7 | 87.5 | 152 | 9.64
Oc1cc(O)c2c(c1)O[C@@H](c1ccc(O)c(O)c1)[C@@H](O)C2 [(+)-EPICATECHIN] | > 100 | > 100 | > 100 | – | – | – | –
O=c1cc(-c2ccc(O)cc2)oc2cc(O)cc(O)c12 [APIGENIN] | 31.6 | 28.9 | 45.7 | 4.74 | 7.63 | 39.6 | 8.35
Oc1cc(O)c2c(c1)O[C@H](c1ccc(O)c(O)c1)[C@@H](O)C2 [CATECHIN] | > 100 | > 100 | > 100 | – | – | – | –
O=c1cc(-c2ccccc2)oc2cc(O)cc(O)c12 [CHRYSIN] | 45.7 | 33.4 | 52.9 | – | – | – | –
O=c1c(-c2ccc(O)cc2)coc2cc(O)ccc12 [DAIDZEIN] | 37.1 | 26.6 | 46.8 | > 787 | > 787 | > 787 | –
COc1ccc(-c2coc3cc(O)ccc3c2=O)cc1 [FORMONONETIN] | > 100 | > 100 | > 100 | – | – | – | –
O=c1cc(-c2ccc(O)c(O)c2)oc2cc(O[C@@H]3O[C@H](CO)[C@@H](O)[C@H](O)[C@H]3O)cc(O)c12 [GALUTEOLIN] | 47.4 | 52.2 | 58.6 | > 1120 | > 1120 | > 1120 | –
O=c1c(-c2ccc(O)cc2)coc2cc(O)cc(O)c12 [GENISTEIN] | 77.1 | 134 | 83.3 | – | – | – | –
COc1ccc([C@@H]2CC(=O)c3c(O)cc(O[C@@H]4O[C@H](CO[C@@H]5O[C@@H](C)[C@H](O)[C@@H](O)[C@H]5O)[C@@H](O)[C@H](O)[C@H]4O)cc3O2)cc1O [HESPERIDIN] | > 100 | > 100 | > 100 | – | – | – | –
COc1c(O)cc2oc(-c3ccc(O)cc3)cc(=O)c2c1O [HISPIDULIN] | 46.3 | 26 | 33.2 | 24.7 | 24.7 | 172 | 6.98
O=c1c(O)c(-c2ccc(O)cc2)oc2cc(O)cc(O)c12 [KAEMPFEROL] | 58.6 | 38.1 | 46.4 | – | – | – | –
O=C1C[C@@H](c2ccc(O[C@@H]3O[C@H](CO)[C@@H](O)[C@H](O)[C@H]3O)cc2)Oc2cc(O)ccc21 [LIQUIRITIN] | > 100 | > 100 | > 100 | – | – | – | –
O=c1cc(-c2ccc(O)c(O)c2)oc2cc(O)cc(O)c12 [LUTEOLIN] | 33.7 | 32.6 | 53.3 | 6.82 | 7.2 | 12.4 | 1.82
O=c1c(O)c(-c2cc(O)c(O)c(O)c2)oc2cc(O)cc(O)c12 [MYRICETIN] | 82.6 | 46.2 | 75.4 | – | – | – | –
O=C1C[C@@H](c2ccc(O)cc2)Oc2cc(O)cc(O)c21 [NARINGENIN] | > 100 | > 100 | > 100 | – | – | – | –
CCC(CC)O[C@@H]1C=C(C(=O)O)C[C@H](N)[C@H]1NC(C)=O [OSELTAMIVIR CARBOXYLATE] | – | – | – | 0.15 | 1.02 | 17.1 | –
O=c1c(O)c(-c2ccc(O)c(O)c2)oc2cc(O)cc(O)c12 [QUERCETIN] | 58.4 | 87.6 | 67.5 | – | – | – | –
COc1cc(O)c2c(=O)c(O)c(-c3ccc(O)cc3)oc2c1 [RHAMNOCITRIN] | 51.5 | 83.9 | 62 | – | – | – | –
NC(=O)c1ncn([C@@H]2O[C@H](CO)[C@@H](O)[C@H]2O)n1 [RIBAVIRIN] | – | – | – | 25.6 | – | > 512 | >19.98
C[C@@H]1O[C@@H](OC[C@H]2O[C@@H](Oc3c(-c4ccc(O)c(O)c4)oc4cc(O)cc(O)c4c3=O)[C@H](O)[C@@H](O)[C@@H]2O)[C@H](O)[C@H](O)[C@H]1O [RUTIN] | 52.2 | 87.7 | > 100 | – | – | – | –
O=C(O)[C@H]1O[C@@H](Oc2cc3oc(-c4ccc(O)cc4)cc(=O)c3c(O)c2O)[C@H](O)[C@@H](O)[C@@H]1O [SCUTELLARIN] | 50.6 | 47.3 | 59.9 | – | – | – | –
O=c1c(-c2ccc(O[C@@H]3O[C@H](CO)[C@@H](O)[C@H](O)[C@H]3O)cc2)coc2cc(O)cc(O)c12 [SOPHORICOSIDE] | > 100 | > 100 | > 100 | – | – | – | –
O=C1/C(=C/c2ccc(O)c(O)c2)Oc2cc(O)ccc21 [SULFURETIN] | 29.6 | 51.2 | 36.2 | > 9.15 | 9.15 | 27.4 | –
O=c1cc(-c2ccc(O)cc2)oc2c([C@@H]3O[C@H](CO)[C@@H](O)[C@H](O)[C@H]3O)c(O)cc(O)c12 [VITEXIN] | 46.5 | 45.1 | 49.6 | – | – | – | –
